# US10865216B2, “Tricyclic Gyrase inhibitors” (MERCK SHARP & DOHME CORP., priority 2012, dated 2020)
# Read-outs that look alike come from different tables or passages of the source.
# Experiments:
# E. coli ATCC 25922 = assay: MIC, E. coli ATCC 25922; format: cell-based; conditions: for MIC: Escherichia coli
# S. aureus ATCC 13709 = assay: MIC, S. aureus ATCC 13709; format: cell-based; conditions: for MIC: Staphylococcus aureus
# [1] = ATCC25922, E. coli, Alamar Blue read after overnight incubation at 35° C., read-out: MIC Ec
# [2] = ATCC13709, S. aureus, Alamar Blue read after overnight incubation at 35° C., read-out: MIC Sa
# [3] = E. coli, Alamar Blue read after overnight incubation at 35° C.
# [4] = S. aureus, Alamar Blue read after overnight incubation at 35° C.
# [5] = ATCC25922, Table 15, R2 is joined to R4, EC8 not defined, read-out: EC8 MIC
# [6] = ATCC13709, Table 15, R2 is joined to R4, read-out: SA MIC
SMILES,MIC (E. coli ATCC 25922; [1]),MIC (S. aureus ATCC 13709; [2]),MIC Ec (E. coli ATCC 25922; [3]),MIC Sa (S. aureus ATCC 13709; [4]),other results
CNc1cccc2c1[nH]c1nc(Oc3cnc(C)nc3)cc(Oc3cnc(C)nc3)c12 [Compound 3.38],> 32 µg/mL,1 µg/mL,–,–,–
CNc1cc(F)cc2c1[nH]c1nc(Oc3cnc4c(Cl)cnn4c3)nc(N3C[C@H]4C[C@@H]3C[C@H]4N)c12 [Compound 10.23],–,–,–,–,"MIC Ec (E. coli ATCC 25922; Table 18, Ec): ≤ 0.5 µg/mL; MIC Sa (S. aureus ATCC 13709; Table 18, Sa): ≤ 0.5 µg/mL"
CNc1cc(F)cc2c1[nH]c1nc(Sc3cnc4ccc[n+]([O-])c4c3)nc(N3CCC4(CC4N)C3)c12 (centres unmarked) [Compound 1.65],–,–,≤0.5 µg/mL,≤0.5 µg/mL,–
CNc1cc(F)c(F)c2c1[nH]c1nc(Oc3cnc([C@H](C)O)nc3)nc(N3CC[C@]4(CC[C@H]4N)C3)c12 [Compound 10.93],–,–,–,–,"MIC Ec (E. coli ATCC 25922; Table 18, Ec): ≤ 0.5 µg/mL; MIC Sa (S. aureus ATCC 13709; Table 18, Sa): ≤ 0.5 µg/mL"
CNc1cccc2c1[nH]c1nc(Oc3cncnc3)cc(N3CCC4(CC4N)C3)c12 (centres unmarked) [Compound 3.41],≤ 0.5 µg/mL,≤ 0.5 µg/mL,–,–,–
CNc1cccc2c1[nH]c1nc(Oc3cncc(C#N)c3)cc(N3CCN(CCN)CC3)c12 [Compound 3.55],> 64 µg/mL,64 µg/mL,–,–,–
CNc1cc(Cl)cc2c1[nH]c1nc(Oc3cnc4ccnn4c3)nc(N3C[C@H]4C[C@@H]3C[C@H]4N)c12 [Compound 10.37],–,–,–,–,"MIC Ec (E. coli ATCC 25922; Table 18, Ec): ≤ 0.5 µg/mL; MIC Sa (S. aureus ATCC 13709; Table 18, Sa): ≤ 0.5 µg/mL"
CNc1cc(F)cc2c1[nH]c1nc(Oc3cnc(C)nc3)nc(N3CC(N)C4(CC4)C3)c12 (centres unmarked) [Compound 4.065],–,–,≤0.5 µg/mL,≤0.5 µg/mL,–
CNc1cc(F)cc2c1[nH]c1nc(Oc3cnc4[nH]cnc4c3)nc(N3CC4C(N)C4C3)c12 (centres unmarked) [Compound 4.311],–,–,>16 µg/mL,4 µg/mL,–
CNc1cc(F)cc2c1[nH]c1nc3nc(c12)N[C@@H](CN)COCCCNC(=O)CSc1ncc(cn1)O3,–,–,–,–,MIC (E. coli ATCC 25922; [5]): 8 µg/mL; MIC (S. aureus ATCC 13709; [6]): 2 µg/mL
CNc1cc(F)cc2c1[nH]c1nc(Oc3cnc(N)nc3)nc(N3CC4CCNC4C3)c12 (centres unmarked) [Compound 4.187],–,–,2 µg/mL,≤0.5 µg/mL,–
CNc1cccc2c1[nH]c1nc(Oc3cnc(N)nc3)nc(Oc3cnc(N)nc3)c12 [Compound 8.4],> 64 µg/mL,8 µg/mL,–,–,–
CNc1cc(F)cc2c1[nH]c1nc(Oc3cnc(-c4nccn4C)nc3)nc(N3C[C@H](N)C4(CC4)C3)c12 [Compound 4.399],–,–,2 µg/mL,≤0.5 µg/mL,–
CNc1cc(F)cc2c1[nH]c1nc(Oc3ccc(C#N)nc3)nc(N3CCC(N)C3)c12 (centres unmarked) [Compound 4.331],–,–,≤0.5 µg/mL,≤0.5 µg/mL,–
CNc1cc(F)cc2c1[nH]c1nc(Oc3ccc(C)nc3)nc(N3CC4CC(C)NC4C3)c12 (centres unmarked) [Compound 10.79],–,–,–,–,"MIC Ec (E. coli ATCC 25922; Table 18, Ec): ≤ 0.5 µg/mL; MIC Sa (S. aureus ATCC 13709; Table 18, Sa): ≤ 0.5 µg/mL"
CNc1cc(F)cc2c1[nH]c1nc3nc(c12)NCCCCCCNC(=O)c1cncc(c1)O3,–,–,–,–,MIC (E. coli ATCC 25922; [5]): 1 µg/mL; MIC (S. aureus ATCC 13709; [6]): ≤ 0.5 µg/mL
CNc1cc(F)cc2c1[nH]c1nc(Oc3cncnc3)nc(N3CC4CCC(N)C4C3)c12 (centres unmarked) [Compound 4.026],–,–,≤0.5 µg/mL,≤0.5 µg/mL,–
CNc1cccc2c1[nH]c1nc(Oc3cnc4ccoc4c3)cc(N3CC4C(N)C4C3)c12 (centres unmarked) [Compound 3.23],2 µg/mL,≤ 0.5 µg/mL,–,–,–
CNc1cc(F)cc2c1[nH]c1nc(Cc3cncnc3)nc(N3C[C@H](N)C4(CC4)C3)c12,–,–,–,–,"EC8 MIC (E. coli ATCC 25922; Table 11, L = CH2, EC8 not defined): 1 µg/mL; SA MIC (S. aureus ATCC 13709; Table 11, compounds wherein L = CH2): ≤ 0.5 µg/mL"
CNc1cc(F)cc2c1[nH]c1nc(Oc3cnc(N)nc3)nc(N3CC(N)C4(CC4)C3)c12 (centres unmarked) [Compound 4.177],–,–,≤0.5 µg/mL,≤0.5 µg/mL,–
CNc1cc(F)c(C)c2c1[nH]c1nc(Oc3cnc(C)nc3)nc(N3CC4(CCC4N)C3)c12 (centres unmarked) [Compound 6.20],–,–,>16 µg/mL,4 µg/mL,–
CNc1cc(F)cc2c1[nH]c1nc(Oc3cncc(C(N)=O)c3)nc(N3CC4CC(N)C4C3)c12 (centres unmarked) [Compound 4.236],–,–,≤0.5 µg/mL,≤0.5 µg/mL,–
CNc1cc(F)cc2c1[nH]c1nc(Oc3cnc4cc[s+]([O-])c4c3)nc(N3CC4(CC[C@H]4N)C3)c12 (some centres unmarked) [Compound 10.111],–,–,–,–,"MIC Ec (E. coli ATCC 25922; Table 18, Ec): ≤ 0.5 µg/mL; MIC Sa (S. aureus ATCC 13709; Table 18, Sa): ≤ 0.5 µg/mL"
CNc1cc(F)c(C#N)c2c1[nH]c1nc(Oc3cnc(C)nc3)nc(N3CC4(CC[C@H]4N)C3)c12 [Compound 10.71],–,–,–,–,"MIC Ec (E. coli ATCC 25922; Table 18, Ec): ≤ 0.5 µg/mL; MIC Sa (S. aureus ATCC 13709; Table 18, Sa): ≤ 0.5 µg/mL"
COc1cccc2c1[nH]c1nc(Sc3cnc4nccnc4c3)nc(N3CC4C(N)C4C3)c12 (centres unmarked) [Compound 1.76],> 64 µg/mL,1 µg/mL,–,–,–
CNc1cc(F)cc2c1[nH]c1nc(Oc3ccc(C#N)nc3)nc(N3CC(N)C4(CC4)C3)c12 (centres unmarked) [Compound 4.329],–,–,≤0.5 µg/mL,≤0.5 µg/mL,–
CNc1ncc(Oc2nc(N3C[C@H](N)C4(CC4)C3)c3c(n2)[nH]c2c(NC)cc(F)cc23)cn1 [Compound 4.216],–,–,≤0.5 µg/mL,≤0.5 µg/mL,–
CNc1cc(F)cc2c1[nH]c1nc(Oc3cnc4cccnc4c3)nc(N3CC4CCNC4C3)c12 (centres unmarked) [Compound 4.044],–,–,≤0.5 µg/mL,≤0.5 µg/mL,–
CNc1cc(F)cc2c1[nH]c1nc(Nc3cnc4nccnc4c3)nc(N3C[C@H]4CC3C[C@H]4N)c12,–,–,–,–,"EC MIC (E. coli ATCC 25922; Table 13, L = NH): 16 µg/mL; SA MIC (S. aureus ATCC 13709; Table 13, L = NH): ≤ 0.5 µg/mL"
CNc1cc(F)c(F)c2c1[nH]c1nc(Oc3cnc([C@@H](C)O)nc3)nc(N3CC4NCC[C@@H]4C3)c12 (some centres unmarked) [Compound 10.31],–,–,–,–,"MIC Ec (E. coli ATCC 25922; Table 18, Ec): ≤ 0.5 µg/mL; MIC Sa (S. aureus ATCC 13709; Table 18, Sa): ≤ 0.5 µg/mL"

# The next lines start with results.
MIC (E. coli ATCC 25922; [1]),MIC (S. aureus ATCC 13709; [2]),MIC Ec (E. coli ATCC 25922; [3]),MIC Sa (S. aureus ATCC 13709; [4]),SMILES,other results
≤ 0.5 µg/mL,≤ 0.5 µg/mL,–,–,CNc1cccc2c1[nH]c1nc(Sc3cc4ncccc4[n+]([O-])c3)nc(N3C[C@@H]4[C@@H](N)[C@@H]4C3)c12 [Compound 1.31],–
–,–,≤0.5 µg/mL,≤0.5 µg/mL,CNc1cc(F)cc2c1[nH]c1nc(Oc3cnc(SC)nc3)nc(N3CCC(N)C3)c12 (centres unmarked) [Compound 4.199],–
> 64 µg/mL,16 µg/mL,–,–,CNc1ncnc2c1[nH]c1nc(Oc3cnc(C)nc3)nc(N3CC(N)C4(CC4)C3)c12 (centres unmarked) [Compound 7.08],–
> 16 µg/mL,8 µg/mL,–,–,Cc1ncc(Oc2nc(N3C[C@H](N)C4(CC4)C3)c3c(n2)[nH]c2c(N(C)C(=O)CN)cc(F)cc23)cn1 [Compound 4.426],–
2 µg/mL,≤ 0.5 µg/mL,–,–,CNc1cccc2c1[nH]c1nc(Oc3cncc(F)c3)cc(N3CC(N)C4(CC4)C3)c12 (centres unmarked) [Compound 3.50],–
32 µg/mL,4 µg/mL,–,–,CNc1cccc2c1[nH]c1nc(Sc3cnc4cccnc4c3)nc(N3CCC4(CCNCC4)C3)c12 [Compound 1.56],–
–,–,≤0.5 µg/mL,≤0.5 µg/mL,CNc1cc(F)cc2c1[nH]c1nc(Oc3cnc(C#N)c(C)c3)nc(N3CC4(CCC4N)C3)c12 (centres unmarked) [Compound 4.326],–
> 64 µg/mL,16 µg/mL,–,–,CNc1nccc2c1[nH]c1nc(Oc3cncc(F)c3)nc(N3CCC4(CC4N)C3)c12 (centres unmarked) [Compound 7.07],–
–,–,≤0.5 µg/mL,≤0.5 µg/mL,CNc1cc(F)cc2c1[nH]c1nc(Oc3cnc(N)nc3)nc(N3CCC4(C[C@H]4N)C3)c12 (some centres unmarked) [Compound 4.174],–
–,–,4 µg/mL,≤0.5 µg/mL,CNc1cc(F)cc2c1[nH]c1nc(Oc3cncc(-c4nnnn4C)c3)nc(N3CC4C[C@@H](N)C4C3)c12 (some centres unmarked) [Compound 4.171],–
–,–,2 µg/mL,≤0.5 µg/mL,CNc1cc(F)cc2c1[nH]c1nc(Oc3cncc(C#N)c3)nc(N3CC(N)C4(CC4)C3)c12 (centres unmarked) [Compound 4.051],–
–,–,4 µg/mL,≤0.5 µg/mL,CNc1cc(F)cc2c1[nH]c1nc(Oc3cncnc3)nc(N3CCC4(CCNC4)C3)c12 (centres unmarked) [Compound 4.033],–
64 µg/mL,8 µg/mL,–,–,CNc1cccc2c1[nH]c1nc(Oc3cncnc3)cc(N3CCC4(CNC4)C3)c12 [Compound 3.65],–
